Test results from US20250282819A1, “MITOCHONDRIA-[…] PEPTIDE THAT CAN BE […] DELIVERED AT NANOMOLAR CONCENTRATION, AND USE THEREOF” (CAMP THERAPEUTICS INC., priority 2021, published 2025).
Where a SMILES comes first, the peptide text is derived from it. [ ]: non-standard residue; d: D form. Cha = N[C@@H](CC1CCCCC1)C(=O)O

Legend:
HeLa cells [1] = experiment: ATP levels in damaged cells pretreated with peptide; type: cell-based; conditions: HeLa cells pretreated 3 hours; H2O2, antimycin A, or CCCP
Method: The relative ATP levels of cells were compared by fluorescence intensity according to the method described in Experimental Example 8, and mitochondrial damage was induced by treatment with two different mitochondrial damaging agents (1 μM of antimycin A or 1 mM of H2O2).
Cellular ATP levels were assessed using an ATP detection kit (Abcam, ab113849, USA) according to the manufacturer's instructions. Fluorescence luminescence was measured with a microplate reader (Promega, Glomax 96 microplate luminometer, USA).

HeLa cells [2] = experiment: Co-localization with Drp1-eGFP; type: cell-based; conditions: HeLa cells transfected with Drp1-eGFP
Method: Wild-type Drp1 cDNA (kindly provided by Dr. Sunyong Chung, Ajou University School of Medicine) was amplified by polymerase chain reaction and inserted into the N-terminus of the eGFP gene in the pcDNA3.1-plasmid. Transfection of the plasmid was performed using Lipofectamine™ 3000 (Thermo Fisher Scientific, L3000001) according to the manufacturer's instructions.

HeLa cells [3] = conditions: observed for 4 hours
HeLa cells [4] = experiment: Co-localization with endosome, lysosome and cardiolipin (NAO) markers; type: cell-based; conditions: HeLa cells expressing CellLight early endosomes-GFP, 100 nM 3 hours
Method: Next, to investigate whether mitochondrial damage affects the amount of peptide present in lysosomes, cardiolipin-specific targeting was investigated using NAO in the presence or absence of CCCP.
For microscopic observation, HeLa cells were cultured in glass-bottom dishes (SPL, 200350, Korea). The cells were then treated with peptides for 3 hours and stained with MitoTracker™ (Thermo Fisher Scientific, A1372, USA; 100 nM, 1 hr), nonyl acridine orange (NAO; Thermo Fisher Scientific, A1372; 100 nM, 1 hr), Hoechst 33342 ([…], 20 min), CellLight™ early endosomes-GFP (Thermo Fisher Scientific, C10586; […], 16 hr), and/or LysoTracker™ (Thermo Fisher Scientific, L7525; 50 nM, 30 min). The cells were then rinsed with PBS and HBSS was added thereto. Images of the stained cells were obtained using a microscope (Zeiss LSM 880 and ELYRA PS.1). To generate ultra-high resolution images, a structured illumination process was performed with ZEN Black software. Pearson r values were calculated by using ImageJ software.

HeLa cells [5] = conditions: EC50 concentration 3 hours, 0.5 mM H2O2
Method: Subsequently, after treatment with 0.5 mM of H2O2, the fluorescence was detected and imaged by confocal microscopy. The fluorescence intensity of the cells was calculated with an image analysis program (ZEN blue).
Then, the cells were stained with 2′,7′-dichlorofluorescin diacetate (H2DCFDA; Sigma, 287810, USA; 25 μM, 30 min) and washed twice with PBS. The cells were treated with 500 μM H2O2 in HBSS and incubated for an additional 10 minutes. DCF signal of the cells was detected by confocal microscope and an image thereof was taken. Green signal intensity of each image was calculated using ZEN blue software.

HeLa cells [6] = experiment: Preferential binding to CCCP-damaged mitochondria, confocal microscopy; type: cell-based; conditions: 100 nM 3 hours, 20 μM CCCP
Method: To damage mitochondria, treatment with carbonyl cyanide m-chlorophenyl hydrazone (CCCP) at a concentration of 20 μM was performed for 30 minutes.
For microscopic observation, HeLa cells were cultured in glass-bottom dishes (SPL, 200350, Korea). The cells were then treated with peptides for 3 hours and stained with MitoTracker™ (Thermo Fisher Scientific, A1372, USA; 100 nM, 1 hr), nonyl acridine orange (NAO; Thermo Fisher Scientific, A1372; 100 nM, 1 hr), Hoechst 33342 (1 g/mL, 20 min), CellLight™ early endosomes-GFP (Thermo Fisher Scientific, C10586; 2 L/10,000 cells, 16 hr), and/or LysoTracker™ (Thermo Fisher Scientific, L7525; 50 nM, 30 min). The cells were then rinsed with PBS and HBSS was added thereto. Images of the stained cells were obtained using a microscope (Zeiss LSM 880 and ELYRA PS.1). To generate ultra-high resolution images, a structured illumination process was performed with ZEN Black software. Pearson r values were calculated by using ImageJ software.

HeLa cells [7] = conditions: HeLa cells pretreated 3 hours; H2O2, antimycin A, or CCCP
Method: (§1) 2×10^4 HeLa cells were seeded in a 96-well plate 24 hours before the experiment. The cells were then stained with MitoSOX™ (Thermo Fisher Scientific, M36008; 5 μM, 10 min) or tetramethylrhodamine ethyl ester (TMRE; Sigma, 87917; 600 nM, 15 min). The cells were washed with PBS, and HBSS was added thereto. Fluorescence signal of the cells was measured with a microplate reader (TECAN) at 37° C. (MitoSox, Ex/Em=510/580 nm; TMRE, Ex/Em=525/575 nm).

HeLa cells [8] = conditions: 10 or 30 nM 3 hours, then H2O2 for 1 hour
Method: The membrane potential of mitochondria was measured according to the method described in Experimental Example 7.
as §1

[9] = SPR binding to inner membrane model on sensor chip
Method: The surface plasmon resonance (SPR) technique was used to determine binding ability of the peptide to liposome. Specifically, an L1 sensor chip was inserted into a Biacore™ T200 SPR system (Cytiva, USA) and then liposome was injected so that the liposome binds to the sensor chip. Subsequently, 1 μM of NBD-CMP3013m peptide was injected to check the signal intensity increased by the binding of liposome and CMP3013.
Two types of model systems mimicking the inner mitochondrial membrane were constructed using POPC and POPE according to the method described in Experimental Example 12, and NBD-labeled CMP3013 monomer (NBD-CMP3013m) and NBD-labeled SS-31 (NBD-SS-31) were used to compare and analyze their cardiolipin binding ability.

[10] = Cardiolipin binding assay, NBD fluorescence with liposomes
Method: To further validate specificity of CMP3013 for cardiolipin-rich membranes identified in Example 9, two model systems mimicking the inner mitochondrial membrane were constructed using POPC (1-palmitoyl-2-oleoyl-sn-glycero-3-phosphocholine) and POPE (1-palmitoyl-2-oleoyl-sn-glycero-3-phosphoethanolamine), and cardiolipin binding assays were performed using an NBD-labeled CMP3013 monomer (NBD-CMP3013m), according to the method described in Experimental Example 12.
For the association experiments, 1 μM of NBD-labeled peptide dissolved in PBS was prepared in a black 96-well plate. Liposome (POPC:POPE=2:1 or POPC:POPE=2:1, containing 10% cardiolipin) was added to the peptide until the desired concentration was achieved. The mixture of NBD-peptide and liposome was mixed well through pipetting, and then fluorescence emission of the sample was monitored (λex=467 nm, λem=536 nm).
For the association experiments depending on cardiolipin ratio, 1 μM of NBD-labeled peptide or C6-NBD dissolved in PBS was prepared in a black 96-well plate. Liposome (POPC:POPE=2:1, containing 0 to 20% cardiolipin) was added to the peptide until the desired concentration (5 μM) was achieved. This mixture was mixed well through pipetting and fluorescence emission of the sample was monitored (λex=467 nm, λem=536 nm).
For dissociation experiments, 1 μM of NBD-labeled peptide dissolved in PBS was prepared in a black 96-well plate. Liposome (POPC:POPE=2:1 or POPC:POPE=2:1, containing 10% cardiolipin) was added to the peptide until the desired concentration (100 μM) was achieved. The mixture of NBD-peptide and liposome was mixed well through pipetting and fluorescence intensity of the mixture was measured (λex=467 nm, λem=536 nm). The unlabeled peptide (acetylated peptide) was then added to the mixture and mixed well through pipetting. Incubation in the dark was performed for 10 minutes, and then changes in fluorescence intensity were monitored. Peptide addition and fluorescence measurement were repeated until the concentration of acetylated peptide reached 40 μM.

HeLa cells [11] = experiment: Relative cytotoxicity, number of cells normally attached; conditions: 100 nM, 3 hours
Method: The relative cytotoxicity of the dimeric bundle peptides according to the present disclosure was compared and analyzed. For this purpose, 1×10^5 HeLa cells were treated with 100 nM of each peptide for 3 hours, washed three times with PBS, and then resuspended in PBS. After 30 minutes, five random photographs of each sample were taken under a light microscope to measure the number of cells normally attached to the cell culture dish.

HeLa cells [12] = type: cell-based; conditions: for level of EC50 value (cell-penetrating ability): comparison of CMP3013, LR10, MPP1a, SS-31
Method: Cell-penetrating ability was evaluated using the fluorescently-labeled versions of the dimeric bundle peptides synthesized in Example 3, and measured as EC50 values according to the method described in Experimental Example 3.
1×10^5 HeLa cells were seeded into a 24-well plate. After 24 hours, the peptide was added to the cells and further incubation was performed for 3 hours. The incubated cells were harvested, washed with PBS, suspended in PBS, and then analyzed by fluorescence-activated cell sorting (FACS; BD Accuri, USA). The cells whose fluorescence intensity exceeds the maximum intensity of untreated cells were classified as fluorescence-positive cells.

Compound: CC(=O)N[C@@H](CC1CCCCC1)C(=O)N[C@H]1CSSC[C@@H](C(=O)N[C@@H](CCCNC(=N)N)C(N)=O)NC(=O)[C@H](CC2CCCCC2)NC(=O)[C@H](CCCNC(=N)N)NC(=O)[C@H](CCCNC(=N)N)NC(=O)[C@H](CC2CCCCC2)NC(=O)[C@H](CC(C)C)NC(=O)[C@H](CCCNC(=N)N)NC(=O)[C@@H](NC(=O)[C@H](CC2CCCCC2)NC(=O)c2ccc3c(c2)C(=O)OC32c3ccc(N(C)C)cc3Oc3cc(N(C)C)ccc32)CSSC[C@@H](C(=O)N[C@@H](CCCNC(=N)N)C(N)=O)NC(=O)[C@H](CC2CCCCC2)NC(=O)[C@H](CCCNC(=N)N)NC(=O)[C@H](CCCNC(=N)N)NC(=O)[C@H](CC2CCCCC2)NC(=O)[C@H](CC(C)C)NC(=O)[C@H](CCCNC(=N)N)NC1=O [FL-CMP3013] (HELM PEPTIDE1{[ac].[Cha].C.R.L.[Cha].R.R.[Cha].C.R.[am]}|PEPTIDE2{[CN(C)c1ccc2c(c1)Oc1cc(N(C)C)ccc1C21OC(=O)c2cc(C(=O)[*:2])ccc21].[Cha].C.R.L.[Cha].R.R.[Cha].C.R.[am]}$PEPTIDE1,PEPTIDE2,3:R3-10:R3|PEPTIDE1,PEPTIDE2,10:R3-3:R3$$$V2.0)
- ATP production (HeLa cells [1]): resumed ATP production
- co-localization with Drp1 (HeLa cells [2]): co-localize perfectly with Drp1
- cell survival after CCCP (HeLa cells [3]): survived even after 4 hours
- co-localization with endosomal marker (HeLa cells [4]): less than 20%
- ROS production inhibiting ability (HeLa cells [5]): greatest inhibition of ROS production
- targeting of damaged mitochondria (HeLa cells [6]): co-localized more with donut-shaped or bulge-shaped mitochondria
- ROS production (HeLa cells [7]): inhibited ROS production
- mitochondrial membrane potential (HeLa cells [8]): increased by FL-CMP3013 treatment in a concentration-dependent manner

Compound: XCRLXRRXCR (Ac-[Cha]CRL[Cha]RR[Cha]CR-NH2; cysteine pairing not given here) [CMP3013m, acetyl-capped monomeric peptide, X = Cha]
- dissociation from the cardiolipin-containing membrane [9]: did not dissociate from the cardiolipin-containing membrane
- greater response unit (RU) for membrane containing 10% cardiolipin versus POPC/POPE membrane alone ([9]; 1 μM peptide): approximately 50%
- binding to pathogenically altered membrane (5 to 10% cardiolipin, 10% DLCL) ([10]; POPC:POPE (2:1) liposomes): can bind to a cardiolipin-damaged membrane
- slower dissociation from CL-containing membrane than from cardiolipin-free membrane ([10]; competition assay with unlabeled peptide): approximately 10 fold
- binding capacity for liposome membranes, CMP3013m versus SS-31 ([10]; liposomes with cardiolipin or di-lysocardiolipin): better binding capacity for all types of membranes

Compound: CC(=O)N[C@@H](CC1CCCCC1)C(=O)N[C@H]1CSSC[C@@H](C(=O)N[C@@H](CCCNC(=N)N)C(N)=O)NC(=O)[C@H](CC(C)C)NC(=O)[C@H](CCCNC(=N)N)NC(=O)[C@H](CCCNC(=N)N)NC(=O)[C@H](CC2CCCCC2)NC(=O)[C@H](CC2CCCCC2)NC(=O)[C@H](CCCNC(=N)N)NC(=O)[C@@H](NC(=O)[C@H](CC2CCCCC2)NC(C)=O)CSSC[C@@H](C(=O)N[C@@H](CCCNC(=N)N)C(N)=O)NC(=O)[C@H](CC(C)C)NC(=O)[C@H](CCCNC(=N)N)NC(=O)[C@H](CCCNC(=N)N)NC(=O)[C@H](CC2CCCCC2)NC(=O)[C@H](CC2CCCCC2)NC(=O)[C@H](CCCNC(=N)N)NC1=O [CMP3011] (HELM PEPTIDE1{[ac].[Cha].C.R.[Cha].[Cha].R.R.L.C.R.[am]}|PEPTIDE2{[ac].[Cha].C.R.[Cha].[Cha].R.R.L.C.R.[am]}$PEPTIDE1,PEPTIDE2,3:R3-10:R3|PEPTIDE1,PEPTIDE2,10:R3-3:R3$$$V2.0)
- relative cytotoxicity (HeLa cells [11]): relatively highest cytotoxicity

Compound: AcNH-RCRLLRRLRLCR-C(O)NH2 [LR10, peptide included in the L1L, L4L, L5L, and L8L sub-libraries, additional comparison group]
- improvement in cell penetration rate as compared with SS-31 (HeLa cells [12]): approximately 100 fold
- level of EC50 value (cell-penetrating ability) (HeLa cells [12]): nanomolar level of EC50 value

Compound: NBD-NH-XCRLXRRXCR-C(O)NH2 [NBD-CMP3013m]
- faster binding to 10% CL liposome versus POPC/POPE liposome alone ([10]; 1 μM NBD-labeled peptide): approximately 10 fold
- greater final fluorescence intensity with 10% CL liposome versus POPC/POPE liposome alone ([10]; 1 μM NBD-labeled peptide): 2 fold

Compound: X(dR)XKX(dR)XK [MPP1a, reference compound]
- level of EC50 value (cell-penetrating ability) (HeLa cells [12]): micromolar level of EC50 value
